± gives the expanded uncertainty stated by the source.
Conditions: Liquid, Closed cell (Static) method

## FC(F)(F)C(F)(F)C(F)(F)C(F)(F)C(F)(F)C(F)(F)C(F)(F)C(F)(F)F [octadecafluorooctane]
308.45 K
  vapor or sublimation pressure: 6.1 ± 12 kPa
318.42 K
  vapor or sublimation pressure: 10.1 ± 12 kPa
323.48 K
  vapor or sublimation pressure: 12.8 ± 12 kPa
328.48 K
  vapor or sublimation pressure: 16 ± 12 kPa
338.43 K
  vapor or sublimation pressure: 24.3 ± 12 kPa
